Experimental data: the OligoGym collection
HELM strings list units from the 5' end as sugar, base in round brackets, then linkage (d deoxyribose, r ribose, m 2'-O-methyl, p phosphodiester). Strings are as the collection lists them; they lack the last nucleoside at the 3' end of the tested compound. [moe] = 2'-O-(2-methoxyethyl) (MOE); [sp] = phosphorothioate linkage; [m5C] = 5-methylcytosine

Target: SMN2
Experiment: mouse, dose not given
Settings: ASO

RNA1{[moe](T)[sp].[moe]([m5C])[sp].[moe](A)[sp].[moe]([m5C])[sp].[moe](T)[sp].[moe](T)[sp].[moe](T)[sp].[moe]([m5C])p.[moe](A)[sp].[moe](T)[sp].[moe](A)[sp].[moe](A)[sp].[moe](T)[sp].[moe](G)[sp].[moe]([m5C])[sp].[moe](T)[sp].[moe](G)}$$$$ (last 3' nucleoside missing)
3 h FOB score: 4.25 score 0-7

RNA1{[moe]([m5C])[sp].[moe](T)[sp].[moe](T)[sp].[moe](T)[sp].[moe]([m5C])[sp].[moe](A)[sp].[moe](T)[sp].[moe](A)[sp].[moe](A)[sp].[moe](T)p.[moe](G)p.[moe]([m5C])p.[moe](T)p.[moe](G)[sp].[moe](G)}$$$$ (last 3' nucleoside missing)
3 h FOB score: 0 score 0-7

RNA1{[moe]([m5C])[sp].[moe](A)[sp].[moe]([m5C])[sp].[moe](T)[sp].[moe](T)[sp].[moe](T)[sp].[moe]([m5C])[sp].[moe](A)p.[moe](T)p.[moe](A)p.[moe](A)[sp].[moe](T)[sp].[moe](G)[sp].[moe]([m5C])[sp].[moe](T)[sp].[moe](G)[sp].[moe](G)}$$$$ (last 3' nucleoside missing)
3 h FOB score: 1 score 0-7

RNA1{[moe](G)[sp].[moe](A)[sp].[moe](T)[sp].[moe](T)[sp].[moe]([m5C])[sp].[moe](A)[sp].[moe]([m5C])[sp].[moe](T)[sp].[moe](T)[sp].[moe](T)[sp].[moe]([m5C])[sp].[moe](A)[sp].[moe](T)[sp].[moe](A)[sp].[moe](A)[sp].[moe](T)[sp].[moe](G)[sp].[moe]([m5C])[sp].[moe](T)}$$$$ (last 3' nucleoside missing)
3 h FOB score: 4 score 0-7

RNA1{[moe]([m5C])p.[moe](T)[sp].[moe]([m5C])[sp].[moe](A)[sp].[moe]([m5C])[sp].[moe](T)[sp].[moe](T)[sp].[moe](T)[sp].[moe]([m5C])[sp].[moe](A)[sp].[moe](T)[sp].[moe](A)[sp].[moe](A)[sp].[moe](T)[sp].[moe](G)[sp].[moe]([m5C])[sp].[moe](T)[sp].[moe](G)}$$$$ (last 3' nucleoside missing)
3 h FOB score: 3.5 score 0-7

RNA1{[moe](A)[sp].[moe]([m5C])p.[moe](T)p.[moe](T)p.[moe](T)p.[moe]([m5C])[sp].[moe](A)[sp].[moe](T)[sp].[moe](A)[sp].[moe](A)[sp].[moe](T)[sp].[moe](G)p.[moe]([m5C])p.[moe](T)p.[moe](G)[sp].[moe](G)}$$$$ (last 3' nucleoside missing)
3 h FOB score: 0 score 0-7

RNA1{[moe]([m5C])[sp].[moe](A)[sp].[moe]([m5C])[sp].[moe](T)[sp].[moe](T)[sp].[moe](T)[sp].[moe]([m5C])p.[moe](A)p.[moe](T)p.[moe](A)p.[moe](A)p.[moe](T)p.[moe](G)[sp].[moe]([m5C])[sp].[moe](T)[sp].[moe](G)[sp].[moe](G)}$$$$ (last 3' nucleoside missing)
3 h FOB score: 0 score 0-7

RNA1{[moe](T)[sp].[moe]([m5C])[sp].[moe](A)[sp].[moe]([m5C])[sp].[moe](T)[sp].[moe](T)[sp].[moe](T)[sp].[moe]([m5C])[sp].[moe](A)[sp].[moe](T)[sp].[moe](A)[sp].[moe](A)p.[moe](T)[sp].[moe](G)[sp].[moe]([m5C])[sp].[moe](T)[sp].[moe](G)}$$$$ (last 3' nucleoside missing)
3 h FOB score: 3.5 score 0-7

RNA1{[moe]([m5C])[sp].[moe](A)[sp].[moe]([m5C])[sp].[moe](T)[sp].[moe](T)p.[moe](T)p.[moe]([m5C])p.[moe](A)p.[moe](T)[sp].[moe](A)[sp].[moe](A)[sp].[moe](T)[sp].[moe](G)[sp].[moe]([m5C])[sp].[moe](T)[sp].[moe](G)[sp].[moe](G)}$$$$ (last 3' nucleoside missing)
3 h FOB score: 0 score 0-7

RNA1{[moe]([m5C])[sp].[moe](A)p.[moe]([m5C])p.[moe](T)p.[moe](T)[sp].[moe](T)[sp].[moe]([m5C])[sp].[moe](A)[sp].[moe](T)[sp].[moe](A)[sp].[moe](A)[sp].[moe](T)[sp].[moe](G)p.[moe]([m5C])p.[moe](T)p.[moe](G)[sp].[moe](G)}$$$$ (last 3' nucleoside missing)
3 h FOB score: 0 score 0-7

RNA1{[moe](A)[sp].[moe](T)[sp].[moe](T)[sp].[moe]([m5C])[sp].[moe](A)[sp].[moe]([m5C])[sp].[moe](T)[sp].[moe](T)[sp].[moe](T)[sp].[moe]([m5C])p.[moe](A)[sp].[moe](T)[sp].[moe](A)[sp].[moe](A)[sp].[moe](T)[sp].[moe](G)[sp].[moe]([m5C])p.[moe](T)[sp].[moe](G)}$$$$ (last 3' nucleoside missing)
3 h FOB score: 2.75 score 0-7

RNA1{[moe](T)[sp].[moe]([m5C])[sp].[moe](A)[sp].[moe]([m5C])[sp].[moe](T)[sp].[moe](T)[sp].[moe](T)[sp].[moe]([m5C])[sp].[moe](A)[sp].[moe](T)[sp].[moe](A)[sp].[moe](A)p.[moe](T)[sp].[moe](G)p.[moe]([m5C])[sp].[moe](T)[sp].[moe](G)}$$$$ (last 3' nucleoside missing)
3 h FOB score: 2.5 score 0-7

RNA1{[moe](T)[sp].[moe](T)[sp].[moe]([m5C])[sp].[moe](A)[sp].[moe]([m5C])[sp].[moe](T)[sp].[moe](T)[sp].[moe](T)[sp].[moe]([m5C])p.[moe](A)[sp].[moe](T)[sp].[moe](A)[sp].[moe](A)[sp].[moe](T)[sp].[moe](G)[sp].[moe]([m5C])p.[moe](T)[sp].[moe](G)}$$$$ (last 3' nucleoside missing)
3 h FOB score: 2 score 0-7

RNA1{[moe](T)p.[moe](T)[sp].[moe]([m5C])[sp].[moe](A)[sp].[moe]([m5C])[sp].[moe](T)[sp].[moe](T)[sp].[moe](T)[sp].[moe]([m5C])[sp].[moe](A)[sp].[moe](T)[sp].[moe](A)[sp].[moe](A)[sp].[moe](T)[sp].[moe](G)[sp].[moe]([m5C])[sp].[moe](T)[sp].[moe](G)}$$$$ (last 3' nucleoside missing)
3 h FOB score: 4 score 0-7

RNA1{[moe](T)[sp].[moe](T)[sp].[moe]([m5C])[sp].[moe](A)[sp].[moe]([m5C])[sp].[moe](T)[sp].[moe](T)[sp].[moe](T)[sp].[moe]([m5C])[sp].[moe](A)[sp].[moe](T)[sp].[moe](A)[sp].[moe](A)[sp].[moe](T)[sp].[moe](G)[sp].[moe]([m5C])p.[moe](T)[sp].[moe](G)}$$$$ (last 3' nucleoside missing)
3 h FOB score: 1.75 score 0-7

RNA1{[moe](A)[sp].[moe]([m5C])[sp].[moe](T)[sp].[moe](T)[sp].[moe](T)p.[moe]([m5C])p.[moe](A)p.[moe](T)p.[moe](A)[sp].[moe](A)[sp].[moe](T)[sp].[moe](G)[sp].[moe]([m5C])[sp].[moe](T)[sp].[moe](G)[sp].[moe](G)}$$$$ (last 3' nucleoside missing)
3 h FOB score: 0 score 0-7

RNA1{[moe](T)[sp].[moe](T)p.[moe]([m5C])[sp].[moe](A)p.[moe]([m5C])[sp].[moe](T)[sp].[moe](T)[sp].[moe](T)[sp].[moe]([m5C])[sp].[moe](A)[sp].[moe](T)[sp].[moe](A)[sp].[moe](A)[sp].[moe](T)[sp].[moe](G)[sp].[moe]([m5C])[sp].[moe](T)[sp].[moe](G)}$$$$ (last 3' nucleoside missing)
3 h FOB score: 2.25 score 0-7
